Measurements taken from US20210205272A1, “DOSING REGIMENS FOR TREATMENT OF SOLID TUMORS HAVING ONE OR MORE GENETIC ALTERATIONS IN FGFR1, FGFR2, AND/OR FGFR3” (DEBIOPHARM INTERNATIONAL, S.A., priority 2018, published 2021).

Assays:
[1] = clinical; settings: in vivo
[2] = test system: advanced solid tumors harboring FGFR 1, 2 or 3 gene alterations; assay: Phase I dose escalation Debio 1347-101: tumor response by RECIST 1.1; assay type: in vivo, human
[3] = test system: advanced solid malignancies of any histological tumor type harboring an FGFR 1, 2 or 3 fusion; assay: Expansion part of Debio 1347-101 phase I study: tumor response by RECIST 1.1; assay type: in vivo, human; settings: 80 mg once daily
Method: The primary objective of this expansion phase is to confirm the safety profile at the RP2D of 80 mg once daily.
As of January 2019, two patients achieved a BOR of PR by investigator assessment according to RECIST 1.1 criteria, one suffering from a cholangiocarcinoma harboring a FGFR2-TACC2 fusion and one suffering from a colon cancer harboring a FGFR2-RP11-89K10.1 fusion.

[4] = 10 patients with confirmed FGFR fusions, doses ≥60 mg/day
[5] = confirmed FGFR fusions, doses ≥60 mg/day
[6] = one patient, intrahepatic cholangiocarcinoma, FGFR2 deletion of exon 5

Cc1nc2cc(-n3ncc(C(=O)c4cc5ccccc5[nH]4)c3N)ccc2[nH]1 [Debio 1347, 5-amino-1-(2-methyl-1H-benzo[d]imidazol-5-yl)-1H-pyrazol-4-yl 1H-indol-2-yl ketone]
half-life ([1]; human, po): 11.5 h | hyperphosphatemia dose relation [1]: dose-dependent | patients achieving PR [2, 4]: 3 patients | patients achieving disease stabilization [2, 4]: 5 patients | patients with progressive disease ([2]; 57 evaluable patients): 35 patients | patients with stable disease ([2]; 57 evaluable patients): 16 patients | tumor type, FGFR alteration and dose of the six PRs ([2]; 57 evaluable patients): two had urothelial carcinoma (FGFR3 fusion—80, 150 mg), the others uterine (FGFR1 amplified—30 mg), cervical (FGFR2 amplified—80 mg), colon cancer (FGFR1 amplified—110 mg) or cholangiocarcinoma (FGFR2 mutation—110 mg) | patients with partial response (PR), overall ([2]; 57 patients evaluable for tumor response): 6 patients | disease control rate (DCR) overall ([2]; all evaluable patients): 38.6% | response after independent centralized radiological review ([2]; cholangiocarcinoma, FGFR2 mutation, 110 mg): confirmed completed response (CR) | disease control rate (DCR) [2, 5]: 80% | median treatment duration in patients with disease control [2, 5]: 34 weeks | range of treatment duration in patients with disease control [2, 5]: 24-47 weeks | antitumor activity ([2]; mainly FGFR2 or 3 gene alterations incl. fusion/translocation, 80 mg and 110 mg daily): Encouraging antitumor activity | stable disease patients with reduced target lesion size ≤30% at least once on-treatment ([2]; of 16 with stable disease): 10 patients | patients with progressive disease per clinical assessment in absence of radiographic evidence ([2]; of 35 with progressive disease): 13 patients | duration of partial response [2, 6]: up to 48 weeks | response upon independent radiological review [2, 6]: complete response | tumor volume reduction ([3]; cholangiocarcinoma FGFR2-ATAD2 fusion, after 6 weeks of treatment): about 7% | patients with BOR of PR by investigator assessment ([3]; cholangiocarcinoma FGFR2-TACC2 fusion and colon cancer FGFR2-RP11-89K10.1 fusion, as of January 2019): two | best response ([3]; one patient, cholangiocarcinoma FGFR2-ATAD2 fusion): disease stabilization (SD) | drug-related deaths (58 treated patients): no death was considered drug-related | maximum tolerated dose (MTD) (escalated up to 150 mg, ≤2 DLTs at the same dose level): not formally reached | TEAE highest severity grade 1 (human, in vivo): 4 (6.9%) patients | TEAE highest severity grade 2 (human, in vivo): 17 (29.3%) patients | TEAE highest severity grade 3 (human, in vivo): 28 (48.3%) patients | TEAE highest severity grade 4 (human, in vivo): 2 (3.4%) patients | number of serious adverse effects (SAEs) (human, in vivo): 39 SAEs | patients experiencing serious adverse effects (SAEs) (human, in vivo): 20 patients | patients requiring a dose reduction (human, in vivo): 20% | patients requiring a dose reduction after the 28-day DLT period (human, in vivo): 7 out of 9 | patients requiring dose modifications due to adverse events (human, in vivo): 30 (51.7%) patients | SAEs deemed possibly study drug related (DLTs) (in vivo): two | TEAEs most often severe (grade >2) (in vivo): hyperphosphatemia, anemia, hyponatremia, and dyspnea | dose reduction required (in vivo): no dose reduction was required at all | most common TEAEs with an incidence ≥25% (in vivo): hyperphosphatemia, diarrhea, nausea, fatigue, constipation, decreased appetite, nail changes, and dry mouth | safety profile (in vivo): tolerable and manageable safety profile | TEAE highest severity grade 5 (of 58 treated patients): 7 (12.1%) patients | patients died from disease progression (of 58 treated patients): 21 patients
